Legend:
Format in all cases: in vivo
[1] = test system: purple redstem (Ammannia coccinea); assay: Test E flooded paddy water application; conditions: Flood, 21 days, scale 0 to 100 (0 no effect, 100 complete control)
Source text: (§1) Three plastic pots (ca. 16-cm diameter) per rate were partially filled with sterilized Tama silt loam soil comprising a 35:50:15 ratio of sand, silt and clay and 2.6% organic matter. Separate plantings for each of the three pots were as follows. Seeds from the U.S. of ducksalad (Heteranthera limosa), smallflower umbrella sedge (Cyperus difformis) and purple redstem (Ammannia coccinea), were planted into one 16-cm pot for each rate. Seeds from the U.S. of rice flatsedge (Cyperus iria), bearded (brdd.) sprangletop (Leptochloa fusca ssp. fascicularis), one stand of 9 or 10 water seeded rice seedlings (Oryza sativa cv. ‘Japonica-M202’), and one stand of 6 transplanted rice seedlings (Oryza sativa cv. ‘Japonica-M202’) were planted into one 16-cm pot for each rate. Seeds from the U.S. of barnyardgrass (Echinochloa crus-galli), late watergrass (Echinochloa oryzicola), early watergrass (Echinochloa oryzoides) and junglerice (Echinochloa colona) were planted into one 16-cm pot for each rate. Plantings were sequential so that crop and weed species were at the 2.0 to 2.5-leaf stage at time of treatment.
(§2) Potted plants were grown in a greenhouse with day/night temperature settings of 29.5/26.7° C., and supplemental balanced lighting was provided to maintain a 16-hour photoperiod. Test pots were maintained in the greenhouse until test completion.
(§3) At time of treatment, test pots were flooded to 3 cm above the soil surface, treated by application of test compounds directly to the paddy water, and then maintained at that water depth for the duration of the test. Effects of treatments on rice and weeds were visually evaluated by comparison to untreated controls after 21 days. Plant response ratings, summarized in Table E, are based on a scale of 0 to 100 where 0 is no effect and 100 is complete control. A dash (-) response means no test result.

[2] = test system: bearded (brdd.) sprangletop (Leptochloa fusca ssp. fascicularis); assay: Test E flooded paddy water application; conditions: Flood, 21 days, scale 0 to 100 (0 no effect, 100 complete control)
Source text: as §1, §2, §3

[3] = test system: junglerice (Echinochloa colona); assay: Test E flooded paddy water application; conditions: Flood, 21 days, scale 0 to 100 (0 no effect, 100 complete control)
Source text: as §1, §2, §3

[4] = test system: ducksalad (Heteranthera limosa); assay: Test E flooded paddy water application; conditions: Flood, 21 days, scale 0 to 100 (0 no effect, 100 complete control)
Source text: as §1, §2, §3

[5] = test system: rice flatsedge (Cyperus iria); assay: Test E flooded paddy water application; conditions: Flood, 21 days, scale 0 to 100 (0 no effect, 100 complete control)
Source text: as §1, §2, §3

[6] = test system: early watergrass (Echinochloa oryzoides); assay: Test E flooded paddy water application; conditions: Flood, 21 days, scale 0 to 100 (0 no effect, 100 complete control)
Source text: as §1, §2, §3

[7] = test system: water seeded rice seedlings (Oryza sativa cv. ‘Japonica-M202’); assay: Test E flooded paddy water application; conditions: Flood, 21 days, scale 0 to 100 (0 no effect, 100 complete control)
Source text: as §1, §2, §3

[8] = test system: late watergrass (Echinochloa oryzicola); assay: Test E flooded paddy water application; conditions: Flood, 21 days, scale 0 to 100 (0 no effect, 100 complete control)
Source text: as §1, §2, §3

[9] = test system: transplanted rice seedlings (Oryza sativa cv. ‘Japonica-M202’); assay: Test E flooded paddy water application; conditions: Flood, 21 days, scale 0 to 100 (0 no effect, 100 complete control)
Source text: as §1, §2, §3

[10] = test system: barnyardgrass (Echinochloa crus-galli); assay: Test E flooded paddy water application; conditions: Flood, 21 days, scale 0 to 100 (0 no effect, 100 complete control)
Source text: as §1, §2, §3

[11] = test system: morningglory (Ipomoea spp.); assay: Test A pre/postemergence
Procedure, shortened: (§4)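 Visual injury scores on a 0–100 scale, 100 being complete control, were assigned roughly ten days after treatment by comparison with untreated greenhouse controls. Test chemicals, formulated with surfactant in non-phytotoxic solvent, were sprayed onto soil preemergence and onto 1–2-leaf plants 2–10 cm tall postemergence.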

[12] = test system: crabgrass (Digitaria sanguinalis); assay: Test A pre/postemergence
Procedure, shortened: as §4

[13] = test system: redroot pigweed (Amaranthus retroflexus); assay: Test A pre/postemergence
Procedure, shortened: as §4

[14] = test system: velvetleaf (Abutilon theophrasti); assay: Test A pre/postemergence
Procedure, shortened: as §4

[15] = test system: giant foxtail (Setaria faberi); assay: Test A pre/postemergence
Procedure, shortened: as §4

[16] = test system: barnyardgrass (Echinochloa crus-galli); assay: Test A pre/postemergence
Procedure, shortened: as §4

[17] = Postemergence, 125 g ai/ha, 0 to 100 scale (0 no effect, 100 complete control)
[18] = Postemergence, 500 g ai/ha, 0 to 100 scale (0 no effect, 100 complete control)
[19] = Preemergence, 125 g ai/ha, 0 to 100 scale where 0 is no effect and 100 is complete control, approximately ten days
[20] = Preemergence, 500 g ai/ha, 0 to 100 scale where 0 is no effect and 100 is complete control, approximately ten days

CCOC(=O)c1nc(-c2ccc(CC)cc2)nc(N)c1Cl [Compound 99]
0: Redstem plant response rating ([1]; 32 g ai/ha) | Redstem plant response rating ([1]; 125 g ai/ha) | Plant response rating, Redstem ([1]; 16 g ai/ha) | Sprangletop, Brdd. plant response rating ([2]; 32 g ai/ha) | Sprangletop, Brdd. plant response rating ([2]; 64 g ai/ha) | Sprangletop, Brdd. plant response rating ([2]; 125 g ai/ha) | Sprangletop, Brdd. plant response rating ([2]; 250 g ai/ha) | Plant response rating, Sprangletop, Brdd. ([2]; 16 g ai/ha) | Junglerice plant response rating ([3]; 32 g ai/ha) | Junglerice plant response rating ([3]; 64 g ai/ha) | Junglerice plant response rating ([3]; 125 g ai/ha) | Junglerice plant response rating ([3]; 250 g ai/ha) | Plant response rating, Junglerice ([3]; 16 g ai/ha) | Watergrass, Early plant response rating ([6]; 32 g ai/ha) | Watergrass, Early plant response rating ([6]; 64 g ai/ha) | Watergrass, Early plant response rating ([6]; 125 g ai/ha) | Watergrass, Early plant response rating ([6]; 250 g ai/ha) | Plant response rating, Watergrass, Early ([6]; 16 g ai/ha) | Rice, Water Seeded plant response rating ([7]; 32 g ai/ha) | Rice, Water Seeded plant response rating ([7]; 64 g ai/ha) | Plant response rating, Rice, Water Seeded ([7]; 16 g ai/ha) | Watergrass, Late plant response rating ([8]; 32 g ai/ha) | Watergrass, Late plant response rating ([8]; 64 g ai/ha) | Watergrass, Late plant response rating ([8]; 125 g ai/ha) | Watergrass, Late plant response rating ([8]; 250 g ai/ha) | Plant response rating, Watergrass, Late ([8]; 16 g ai/ha) | Rice, Transplanted plant response rating ([9]; 32 g ai/ha) | Rice, Transplanted plant response rating ([9]; 64 g ai/ha) | Rice, Transplanted plant response rating ([9]; 125 g ai/ha) | Plant response rating, Rice, Transplanted ([9]; 16 g ai/ha) | Barnyardgrass plant response rating ([10]; 32 g ai/ha) | Barnyardgrass plant response rating ([10]; 64 g ai/ha) | Barnyardgrass plant response rating ([10]; 125 g ai/ha) | Barnyardgrass plant response rating ([10]; 250 g ai/ha) | Plant response rating, Barnyardgrass ([10]; 16 g ai/ha) | Plant response rating, Morningglory [11, 17] | Plant response rating, Morningglory [11, 18] | Plant response rating, Morningglory [11, 19] | Plant response rating, Morningglory [11, 20] | Plant response rating, Crabgrass [12, 17] | Plant response rating, Crabgrass [12, 18] | Plant response rating, Crabgrass [12, 19] | Plant response rating, Crabgrass [12, 20] | Plant response rating, Pigweed [13, 19] | Plant response rating, Pigweed [13, 20] | Plant response rating, Velvetleaf [14, 17] | Plant response rating, Velvetleaf [14, 19] | Plant response rating, Velvetleaf [14, 20] | Plant response rating, Foxtail, Giant [15, 17] | Plant response rating, Foxtail, Giant [15, 18] | Plant response rating, Foxtail, Giant [15, 19] | Plant response rating, Foxtail, Giant [15, 20] | Plant response rating, Barnyardgrass [16, 17] | Plant response rating, Barnyardgrass [16, 18] | Plant response rating, Barnyardgrass [16, 19] | Plant response rating, Barnyardgrass [16, 20]
10: Plant response rating, Pigweed [13, 18]
35: Plant response rating, Velvetleaf [14, 18]
45: Redstem plant response rating ([1]; 250 g ai/ha)
5: Plant response rating, Pigweed [13, 17]
95: Plant response rating, Ducksalad ([4]; 16 g ai/ha)
20: Rice, Water Seeded plant response rating ([7]; 125 g ai/ha) | Rice, Water Seeded plant response rating ([7]; 250 g ai/ha) | Rice, Transplanted plant response rating ([9]; 250 g ai/ha)
100: Ducksalad plant response rating ([4]; 32 g ai/ha) | Ducksalad plant response rating ([4]; 64 g ai/ha) | Ducksalad plant response rating ([4]; 125 g ai/ha) | Ducksalad plant response rating ([4]; 250 g ai/ha) | Flatsedge, Rice plant response rating ([5]; 64 g ai/ha) | Flatsedge, Rice plant response rating ([5]; 125 g ai/ha) | Flatsedge, Rice plant response rating ([5]; 250 g ai/ha) | Plant response rating, Flatsedge, Rice ([5]; 16 g ai/ha)
